Several values for one entry are separate records, joined by “and”; a condition that tells them apart may be missing. Identical values can stand only once. Entries after “also recorded” stand apart in the source; their conditions may differ. Like-named read-outs stand apart in the source and are kept apart here.
Legend:
[1] = in vivo; cited from earlier work
[2] = rats; cited from earlier work
[3] = system: Vaccinia virus (Orthopoxvirus); details: monohydrochloride; cited from earlier work
[4] = system: Poliovirus type 1 (ATCC VR-192); format: cell-based
[5] = system: Herpes simplex virus type 1; details: 200 ppm in water, after 5 and 60 minutes; monohydrochloride; cited from earlier work
[6] = system: Bovine Parainfluenza 3 virus (ATCC VR-281); details: 200 ppm in water, after 5 and 60 minutes; monohydrochloride; cited from earlier work
[7] = system: Coronavirus 229E (ATCC VR-740); format: cell-based, human Coronavirus 229E
[8] = system: murine Norovirus (cepa S99 Berlin); format: cell-based
[9] = system: Adenovirus type 5 (ATCC VR-5); format: cell-based
SARS-CoV-2 = details: cited from earlier work

## L-arginine, N^α-lauroyl-ethyl ester monohydrochloride [LAE®]
[1]
  toxicity to animals and humans: completely harmless
[2]
  absorption and metabolization: fast absorption and metabolization
[3]
  antiviral activity, remaining virus (TCID50): No remaining virus was detected; also recorded: effective
[4]
  effectiveness against the virus: not effective
  viricidal activity (reduction ≥4 log10): has no viricidal activity
[4]; monohydrochloride
  Reduction with 95% confidence interval after 30 minutes: 2.33±0.53 and 1.82±0.52 and 1.49±0.46 and 1.82 ± 0.52 log10 and 1.49 ± 0.46 log10 and 2.33 ± 0.53 log10
MRC-5, ref. FTMR cells
  Level of cytotoxicity: 0.5
Vero, ref. FTVE cells
  Level of cytotoxicity: 0.5
[5]
  antiviral activity, remaining virus (TCID50): No remaining virus was detected; also recorded: effective
[6]
  antiviral activity, remaining virus (TCID50): No remaining virus was detected; also recorded: effective
[7]
  effectiveness against the virus: effective
  reduction (maximum effects): > 4 logo
  viricidal activity (reduction ≥4 log10): has viricidal activity

## C=O [Formaldehyde, formaldehyde, reference compound]
[8]
  log10 TCID50 after 30 min: 3.16 log10 TCID50
  log10 TCID50 after 60 min: 1.74 log10 TCID50
[4]
  log10 TCID50 after 30 min: 5.00 log10 TCID50
  log10 TCID50 after 60 min: 3.07 log10 TCID50
MRC-5, ref. FTMR cells; human
  Level of cytotoxicity: 0.5
Vero, ref. FTVE cells; African green monkey
  Level of cytotoxicity: 0.5
[9]
  log10 TCID50 after 30 min: 2.58 log10 TCID50
  log10 TCID50 after 60 min: 1.33 log10 TCID50
[7]
  log10 TCID50 after 5 min: 3.58 log10 TCID50
  log10 TCID50 after 15 min: 2.49 log10 TCID50

## CCO [ethanol]
SARS-CoV-2; ethanol alone at <23%
  effect on virus infectivity: no effect

## [H]/N=C(\N/C(=N/[H])NCCCCCCNC(=N)NC(=N)Nc1ccc(Cl)cc1)Nc1ccc(Cl)cc1 [chlorhexidine]
SARS-CoV-2
  reduction in viral titres: < 2 log fold

Source: patent US20230151302A1, “Cationic surfactants, in particular ethyl lauroyl arginate LAE, for treating or preventing infections and contaminations with Coronavirus” (priority 2020, published 2023)
